Laboratory results from patent publication US8703768B2, “Nitrogen containing heteroaryl compounds” (Hoffmann-La Roche Inc., priority 2010, dated 2014).

target: human PDE10A (Homo sapiens (Human), UniProt Q9Y233); assay: human PDE10A full length Scintillation Proximity Assay (SPA); assay type: biochemical; conditions: 50 nM cGMP and 50 nM [3H]-cGMP, 20 minutes at room temperature; read-out: PDE10A inhibition IC50
In short: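 Radiometric SPA read-out: after 20 min at room temperature with [^3H]-cGMP/cGMP substrate, zinc sulphate (18 mM) bead stop reagent added and counts read after 1 h. Non-specific signal defined without enzyme; full-length protein used.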

Chain of human PDE10A (Q9Y233 other isoform, or with tags, fused parts or gaps): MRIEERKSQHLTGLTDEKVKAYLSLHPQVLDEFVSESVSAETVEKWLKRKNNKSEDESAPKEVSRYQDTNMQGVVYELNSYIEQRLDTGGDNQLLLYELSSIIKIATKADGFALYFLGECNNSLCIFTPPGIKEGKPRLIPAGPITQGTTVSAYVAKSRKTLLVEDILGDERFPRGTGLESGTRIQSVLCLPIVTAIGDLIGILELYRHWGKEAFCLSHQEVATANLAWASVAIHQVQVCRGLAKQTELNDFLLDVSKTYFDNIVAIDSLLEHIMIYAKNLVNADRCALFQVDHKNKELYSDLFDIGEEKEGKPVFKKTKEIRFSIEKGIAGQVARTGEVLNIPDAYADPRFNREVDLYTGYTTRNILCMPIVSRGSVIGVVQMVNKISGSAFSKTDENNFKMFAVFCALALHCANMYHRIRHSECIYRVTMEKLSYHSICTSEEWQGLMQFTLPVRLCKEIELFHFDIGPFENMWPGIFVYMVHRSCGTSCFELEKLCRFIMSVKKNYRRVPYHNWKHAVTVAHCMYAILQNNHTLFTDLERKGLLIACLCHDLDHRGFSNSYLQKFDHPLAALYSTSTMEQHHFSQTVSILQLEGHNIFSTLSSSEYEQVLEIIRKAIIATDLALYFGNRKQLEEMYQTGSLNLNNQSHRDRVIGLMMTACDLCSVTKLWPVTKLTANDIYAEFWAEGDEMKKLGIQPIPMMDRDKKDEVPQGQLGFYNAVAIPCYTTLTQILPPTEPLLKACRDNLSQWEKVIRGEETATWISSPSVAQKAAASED

Row | IC50 | Compound
1 | 0.5 nM | CNC(=O)c1cc(OC)ccc1NC(=O)c1nc(C2CC2)cnc1Nc1cncnc1 [Example 225, 6-Cyclopropyl-3-(pyrimidin-5-ylamino)-pyrazine-2-carboxylic acid (4-methoxy-2-methylcarbamoyl-phenyl)-amide]
2 | 54.3 nM | CN(CCO)C(=O)c1c(NC(=O)c2nc(C3CC3)cnc2Nc2cncnc2)cnn1C [Example 226, 6-Cyclopropyl-3-(pyrimidin-5-ylamino)-pyrazine-2-carboxylic acid [5-[(2-hydroxy-ethyl)-methyl-carbamoyl]-1-methyl-1H-pyrazol-4-yl]-amide]
3 | 64.1 nM | CC(C)N(C)C(=O)c1c(NC(=O)c2nc(C3CC3)cnc2Nc2cncnc2)cnn1C [Example 227, 6-Cyclopropyl-3-(pyrimidin-5-ylamino)-pyrazine-2-carboxylic acid [5-(isopropyl-methyl-carbamoyl)-1-methyl-1H-pyrazol-4-yl]-amide]
4 | 38 nM | CCN(CC)C(=O)c1c(NC(=O)c2nc(C3CC3)cnc2Nc2cncnc2)cnn1C [Example 228, 6-Cyclopropyl-3-(pyrimidin-5-ylamino)-pyrazine-2-carboxylic acid (5-diethylcarbamoyl-1-methyl-1H-pyrazol-4-yl)-amide]
5 | 12.6 nM | CCCN(C)C(=O)c1c(NC(=O)c2nc(C3CC3)cnc2Nc2cncnc2)cnn1C [Example 229, 6-Cyclopropyl-3-(pyrimidin-5-ylamino)-pyrazine-2-carboxylic acid [1-methyl-5-(methyl-propyl-carbamoyl)-1H-pyrazol-4-yl]-amide]
6 | 118 nM | CCN(CCO)C(=O)c1c(NC(=O)c2nc(C3CC3)cnc2Nc2cncnc2)cnn1C [Example 230, 6-Cyclopropyl-3-(pyrimidin-5-ylamino)-pyrazine-2-carboxylic acid {5-[ethyl-(2-hydroxy-ethyl)-carbamoyl]-1-methyl-1H-pyrazol-4-yl}-amide]
7 | 41.7 nM | CN(C(=O)c1c(NC(=O)c2nc(C3CC3)cnc2Nc2cncnc2)cnn1C)C1CCOCC1 [Example 231, 6-Cyclopropyl-3-(pyrimidin-5-ylamino)-pyrazine-2-carboxylic acid {1-methyl-5-[methyl-(tetrahydro-pyran-4-yl)-carbamoyl]-1H-pyrazol-4-yl}-amide]
8 | 4 nM | Cn1ncc(NC(=O)c2nc(C3CC3)cnc2Nc2cncnc2)c1C(=O)NCC1CCCO1 (stereo not drawn) [Example 232, 6-Cyclopropyl-3-(pyrimidin-5-ylamino)-pyrazine-2-carboxylic acid {1-methyl-5-[(tetrahydro-furan-2-ylmethyl)-carbamoyl]-1H-pyrazol-4-yl}-amide]
9 | 24.9 nM | CCn1ncc(NC(=O)c2nc(C3CC3)cnc2Nc2cncnc2)c1C(=O)NCC1CCCO1 (stereo not drawn) [Example 233, 6-Cyclopropyl-3-(pyrimidin-5-ylamino)-pyrazine-2-carboxylic acid {1-ethyl-5-[(tetrahydro-furan-2-ylmethyl)-carbamoyl]-1H-pyrazol-4-yl}-amide]
10 | 77.3 nM | Cn1ncc(NC(=O)c2nc(C3CC3)cnc2Nc2cccnc2)c1C(=O)N1CCC1 [Example 234, 6-Cyclopropyl-3-(pyridin-3-ylamino)-pyrazine-2-carboxylic acid [5-(azetidine-1-carbonyl)-1-methyl-1H-pyrazol-4-yl]-amide]
11 | 34 nM | CC1CCCCN1C(=O)c1c(NC(=O)c2nc(C3CC3)cnc2Nc2cncnc2)cnn1C (stereo not drawn) [Example 235, 6-Cyclopropyl-3-(pyrimidin-5-ylamino)-pyrazine-2-carboxylic acid [1-methyl-5-(2-methyl-piperidine-1-carbonyl)-1H-pyrazol-4-yl]-amide]
12 | 6.8 nM | Cn1ncc(NC(=O)c2nc(C3CC3)cnc2Nc2cncnc2)c1C(=O)NC1CCN(C(=O)OC(C)(C)C)C1 (stereo not drawn) [Example 236, 3-[(4-{[6-Cyclopropyl-3-(pyrimidin-5-ylamino)-pyrazine-2-carbonyl]-amino}-2-methyl-2H-pyrazole-3-carbonyl)-amino]-pyrrolidine-1-carboxylic acid tert-butyl ester]
13 | 93.4 nM | CN(CC(F)(F)F)C(=O)c1c(NC(=O)c2nc(C3CC3)cnc2Nc2cncnc2)cnn1C [Example 237, 6-Cyclopropyl-3-(pyrimidin-5-ylamino)-pyrazine-2-carboxylic acid {1-methyl-5-[methyl-(2,2,2-trifluoro-ethyl)-carbamoyl]-1H-pyrazol-4-yl}-amide]
14 | 52.3 nM | CN(C(=O)c1c(NC(=O)c2nc(C3CC3)cnc2Nc2cncnc2)cnn1C)C1CC1 [Example 238, 6-Cyclopropyl-3-(pyrimidin-5-ylamino)-pyrazine-2-carboxylic acid [5-(cyclopropyl-methyl-carbamoyl)-1-methyl-1H-pyrazol-4-yl]-amide]
15 | 47.7 nM | CC1CCCN1C(=O)c1c(NC(=O)c2nc(C3CC3)cnc2Nc2cncnc2)cnn1C (stereo not drawn) [Example 239, 6-Cyclopropyl-3-(pyrimidin-5-ylamino)-pyrazine-2-carboxylic acid [1-methyl-5-(2-methyl-pyrrolidine-1-carbonyl)-1H-pyrazol-4-yl]-amide]
16 | 191 nM | CN(C(=O)c1c(NC(=O)c2nc(C3CC3)cnc2Nc2cncnc2)cnn1C)C1COC1 [Example 240, 6-Cyclopropyl-3-(pyrimidin-5-ylamino)-pyrazine-2-carboxylic acid [1-methyl-5-(methyl-oxetan-3-yl-carbamoyl)-1H-pyrazol-4-yl]-amide]
17 | 28.6 nM | CN1CCCC(NC(=O)c2c(NC(=O)c3nc(C4CC4)cnc3Nc3cncnc3)cnn2C)C1 (stereo not drawn) [Example 241, 6-Cyclopropyl-3-(pyrimidin-5-ylamino)-pyrazine-2-carboxylic acid [1-methyl-5-(1-methyl-piperidin-3-ylcarbamoyl)-1H-pyrazol-4-yl]-amide]
18 | 69.3 nM | CN1CCC(NC(=O)c2c(NC(=O)c3nc(C4CC4)cnc3Nc3cncnc3)cnn2C)CC1 [Example 242, 6-Cyclopropyl-3-(pyrimidin-5-ylamino)-pyrazine-2-carboxylic acid [1-methyl-5-(1-methyl-piperidin-4-ylcarbamoyl)-1H-pyrazol-4-yl]-amide]
19 | 1.4 nM | CNC(=O)c1c(NC(=O)c2nc(C3CC3)cnc2Nc2cncnc2)cnn1CC1CCCO1 (stereo not drawn) [Example 243, 6-Cyclopropyl-3-(pyrimidin-5-ylamino)-pyrazine-2-carboxylic acid [5-methylcarbamoyl-1-(tetrahydro-furan-2-ylmethyl)-1H-pyrazol-4-yl]-amide]
20 | 0.2 nM | CC(C)(O)CNC(=O)c1c(NC(=O)c2nc(C3CC3)cnc2Nc2cncnc2)cnn1CC1CCCO1 (stereo not drawn) [Example 244, 6-Cyclopropyl-3-(pyrimidin-5-ylamino)-pyrazine-2-carboxylic acid [5-(2-hydroxy-2-methyl-propylcarbamoyl)-1-(tetrahydro-furan-2-ylmethyl)-1H-pyrazol-4-yl]-amide]
21 | 35.9 nM | CN(CCF)C(=O)c1c(NC(=O)c2nc(C3CC3)cnc2Nc2cncnc2)cnn1C [Example 245, 6-Cyclopropyl-3-(pyrimidin-5-ylamino)-pyrazine-2-carboxylic acid {5-[(2-fluoro-ethyl)-methyl-carbamoyl]-1-methyl-1H-pyrazol-4-yl}-amide]
22 | 290 nM | CN1CCC(N(C)C(=O)c2c(NC(=O)c3nc(C4CC4)cnc3Nc3cncnc3)cnn2C)C1 (stereo not drawn) [Example 247, 6-Cyclopropyl-3-(pyrimidin-5-ylamino)-pyrazine-2-carboxylic acid {1-methyl-5-[methyl-(1-methyl-pyrrolidin-3-yl)-carbamoyl]-1H-pyrazol-4-yl}-amide]
23 | 15.9 nM | CNC(=O)c1c(NC(=O)c2nc(C3CC3)cnc2Nc2cncnc2)cnn1C1CCOC1 (stereo not drawn) [Example 250, 6-Cyclopropyl-3-(pyrimidin-5-ylamino)-pyrazine-2-carboxylic acid [5-methylcarbamoyl-1-(tetrahydro-furan-3-yl)-1H-pyrazol-4-yl]-amide]
24 | 137 nM | Cn1ncc(NC(=O)c2nc(C3CC3)cnc2Nc2cncnc2)c1C(=O)NC1CCNC1 (stereo not drawn) [Example 251, 6-Cyclopropyl-3-(pyrimidin-5-ylamino)-pyrazine-2-carboxylic acid [1-methyl-5-(pyrrolidin-3-ylcarbamoyl)-1H-pyrazol-4-yl]-amide]
25 | 5.8 nM | CC1CCCN1C(=O)c1ncccc1NC(=O)c1nc(C2CC2)cnc1Nc1cncnc1 (stereo not drawn) [Example 252, 6-Cyclopropyl-3-(pyrimidin-5-ylamino)-pyrazine-2-carboxylic acid [2-(2-methyl-pyrrolidine-1-carbonyl)-pyridin-3-yl]-amide]
26 | 31.7 nM | CC1COCCN1C(=O)c1ncccc1NC(=O)c1nc(C2CC2)cnc1Nc1cncnc1 (stereo not drawn) [Example 254, 6-Cyclopropyl-3-(pyrimidin-5-ylamino)-pyrazine-2-carboxylic acid [2-(3-methyl-morpholine-4-carbonyl)-pyridin-3-yl]-amide]
27 | 2.9 nM | Cn1ncc(NC(=O)c2nc(C3CC3)cnc2Nc2cncnc2)c1C(=O)NC[C@@H]1CCCO1 [Example 255, 6-Cyclopropyl-3-(pyrimidin-5-ylamino)-pyrazine-2-carboxylic acid (1-methyl-5-{[(S)-1-(tetrahydro-furan-2-yl)methyl]-carbamoyl}-1H-pyrazol-4-yl)-amide]
28 | 3.3 nM | Cn1ncc(NC(=O)c2nc(C3CC3)cnc2Nc2cncnc2)c1C(=O)NC[C@H]1CCCO1 [Example 256, 6-Cyclopropyl-3-(pyrimidin-5-ylamino)-pyrazine-2-carboxylic acid (1-methyl-5-{[(R)-1-(tetrahydro-furan-2-yl)methyl]-carbamoyl}-1H-pyrazol-4-yl)-amide]
29 | 67.1 nM | CN(CC1CCCO1)C(=O)c1c(NC(=O)c2nc(C3CC3)cnc2Nc2cncnc2)cnn1C (stereo not drawn) [Example 257, 6-Cyclopropyl-3-(pyrimidin-5-ylamino)-pyrazine-2-carboxylic acid {1-methyl-5-[methyl-(tetrahydro-furan-2-ylmethyl)-carbamoyl]-1H-pyrazol-4-yl}-amide]
30 | 176 nM | CNC(=O)c1c(NC(=O)c2nc(OC)cnc2Nc2cncnc2)cnn1C [Example 258, 6-Methoxy-3-(pyrimidin-5-ylamino)-pyrazine-2-carboxylic acid (1-methyl-5-methylcarbamoyl-1H-pyrazol-4-yl)-amide]
